Patent US5045549A, “Substituted 4-pyridone 3-carboxylic acid derivatives, method for their production and their pharmaceutical compositions” (priority 1986, dated 1991)
In brackets after ≈: the same amount, converted by molar mass. Like-named read-outs stand apart in the source and are kept apart here.

Tests used:
[1] = tested on: Staphylococcus aureus MSSA; assay: MIC agar dilution assay (Table 1); format: cell-based; settings: for MIC50: read-out: MIC, 50% Inhibitious; for MIC90: read-out: MIC, 90% Inhibitious
[2] = tested on: Staphylococcus aureus MRSA; assay: MIC agar dilution assay (Table 1); format: cell-based; settings: for MIC50: read-out: MIC, 50% Inhibitious; for MIC90: read-out: MIC, 90% Inhibitious
[3] = tested on: Streptococcus beta-hemolytic; assay: MIC agar dilution assay (Table 1); format: cell-based; settings: for MIC50: read-out: MIC, 50% Inhibitious; for MIC90: read-out: MIC, 90% Inhibitious
Streptococcus pneumoniae = assay: MIC agar dilution assay (Table 1); format: cell-based
Streptococcus faecalis = assay: MIC agar dilution assay (Table 1); format: cell-based; settings: Enterococcus faecalis; for MIC50: read-out: MIC, 50% Inhibitious; for MIC90: read-out: MIC, 90% Inhibitious
Bacteroides fragilis = assay: MIC agar dilution assay, anaerobe bacteria (Table 1); format: cell-based
Bacteroides app. = assay: as above; format: cell-based; settings: for MIC50: read-out: MIC, 50% Inhibitious; for MIC90: read-out: MIC, 90% Inhibitious
Escherichia coli 314 = assay: animal or person; settings: for ED50: Escherichia coli, 314, in Mus musculus, 168 h
Procedure: (§1) In this test, white mice (weight 20±2 g) of Charles River strain CDI received an intraperitoneal injection of a specific amount of a suspension of a bacterial cell culture. The amount is sufficient to cause death of untreated animals within 24-48 hrs. A half hour later, the test animals were administered either an oral or a subcutaneous dosing of the test compound in 0.5 ml of 0.2% starch solution. With streptococcal infections, the test animals received a second dose after 3 hrs. Each test group had 5 animals and each test was performed three times. The ED50 values were calculated on the basis of the survivors at 7 days. An estimate of the oral absorption of the test compounds was determined from the ratio of the ED50 values from the oral and subcutaneous dosings.

Klebsiella pneum. AD = assay: animal or person; settings: for ED50: Klebsiella, in Mus musculus, 168 h
Procedure: as §1

Staph. aureus SSC-80-32 = assay: animal or person; settings: for ED50: Staphylococcus aureus, SSC8032, in Mus musculus, 168 h
Procedure: as §1

Staph. aureus Smith = assay: animal or person; settings: for ED50: Staphylococcus aureus, in Mus musculus, 168 h
Procedure: as §1

Strept. pneum. SVI = assay: animal or person; settings: for ED50: Mus musculus, 168 h
Procedure: as §1

Strept. pyogenes C 203 = assay: animal or person; settings: for ED50: Streptococcus pyogenes, C203, in Mus musculus, 168 h
Procedure: as §1

CITRO DIV = assay: MIC agar dilution assay (Table III); format: cell-based; settings: 18 CITRO DIV K 82 24; 18 Hrs, 35 Celsius; read-out: MINIMAL INHIBITORY CONC.
Procedure: (§2) The results are summarized in Table III. |TEST: 406 METHOD: […] |MEDIUM: […] |INCUBATION: 18 Hrs. 35 Celsius | Aerobic: T

ESCH COLI = assay: MIC agar dilution assay (Table III); format: cell-based; settings: 18 h, read-out: MINIMAL INHIBITORY CONC.
Procedure: as §2

PROV STUA = assay: MIC agar dilution assay (Table III); format: cell-based; settings: 17 PROV STUA CMC 83 3; 18 Hrs, 35 Celsius; read-out: MINIMAL INHIBITORY CONC.
Procedure: as §2

PSEU AERUG = assay: MIC agar dilution assay (Table III); format: cell-based; settings: 18 h, read-out: MINIMAL INHIBITORY CONC.
Procedure: as §2

STREP FAEC = assay: MIC agar dilution assay (Table III); format: cell-based; settings: 18 h, read-out: MINIMAL INHIBITORY CONC.
Procedure: as §2

MORG MORG = assay: MIC agar dilution assay (Table III); format: cell-based; settings: 18 h, read-out: MINIMAL INHIBITORY CONC.
Procedure: (§3) TEST: 406 METHOD: AGAR DIL
(§4) MEDIUM: MUEL-HIN INOCULUM: 1.OE+04 - 5.OE+04
(§5) INCUBATION: 18 Hrs. 35 Celsius

SERRAT MARC = assay: MIC agar dilution assay (Table III); format: cell-based; settings: 18 h, read-out: MINIMAL INHIBITORY CONC.
Procedure: as §3, §4, §5

STAPH AUR = assay: MIC agar dilution assay (Table III); format: cell-based; settings: 18 h, 24 STAPH AUR CMC 83 131, 35 Celsius, read-out: MINIMAL INHIBITORY CONC.
Procedure: as §3, §4, §5

[4] = o/s, estimate of oral absorption, 10080 min
[5] = read-out: MIC, 50% Inhibitious, 50%
[6] = read-out: MIC, 90% Inhibitious, 90%

Work on O=C(O)c1cn(C2CC2)c2cc(N3CCNCC3)c(F)cc2c1=O [CF, Ciprofloxacin] yielded an MIC50 ([1]; Staphylococcus aureus, MSSA) of 0.5 µg/mL (≈ 1.51 µM), an MIC90 ([1]; Staphylococcus aureus, MSSA) of 1 µg/mL (≈ 3.02 µM) and an MIC50 ([2]; Staphylococcus aureus, MRSA) of 1 µg/mL (≈ 3.02 µM). For the same molecule, the MIC90 ([2]; Staphylococcus aureus, MRSA) was 1 µg/mL (≈ 3.02 µM), the MIC50 ([3]; Streptococcus) was 0.5 µg/mL (≈ 1.51 µM) and the MIC90 ([3]; Streptococcus) was 1 µg/mL (≈ 3.02 µM). It also gave an MIC50 (Streptococcus pneumoniae; read-out: MIC, 50% Inhibitious) of 1 µg/mL (≈ 3.02 µM), an MIC90 (Streptococcus pneumoniae; read-out: MIC, 90% Inhibitious) of 2 µg/mL (≈ 6.04 µM) and an MIC50 (Streptococcus faecalis) of 1 µg/mL (≈ 3.02 µM). The MIC90 (Streptococcus faecalis) was 2 µg/mL (≈ 6.04 µM), the MIC50 (Bacteroides fragilis; read-out: MIC, 50% Inhibitious) was 4 µg/mL (≈ 12.1 µM) and the MIC90 (Bacteroides fragilis; read-out: MIC, 90% Inhibitious) was 4 µg/mL (≈ 12.1 µM). The MIC50 (Bacteroides app.; Bacteroides) was 16 µg/mL (≈ 48.3 µM), the MIC90 (Bacteroides app.; Bacteroides) was 16 µg/mL (≈ 48.3 µM) and the ED50 (Escherichia coli 314; po) was 0.52 mg/kg. The ED50 (Escherichia coli 314; sc) was 0.07 mg/kg, the “Ratio o/s of the ED50 values from oral and subcutaneous administration” value (“Ratio o/s of the ED50 values” below) (Escherichia coli 314; [4]) was 7.4 and the ED50 (Klebsiella pneum. AD; po) was 0.38 mg/kg. The ED50 (Klebsiella pneum. AD; sc) was 0.07 mg/kg, the “Ratio o/s of the ED50 values” value (Klebsiella pneum. AD; [4]) was 4.8 and the ED50 (Staph. aureus SSC-80-32; po) was 5.9 mg/kg. For the same molecule, the ED50 (Staph. aureus SSC-80-32; sc) was 0.71 mg/kg, the “Ratio o/s of the ED50 values” value (Staph. aureus SSC-80-32; [4]) was 8.3 and the ED50 (Staph. aureus Smith; po) was 4.3 mg/kg. For the same molecule, the ED50 (Staph. aureus Smith; sc) was 0.64 mg/kg, the “Ratio o/s of the ED50 values” value (Staph. aureus Smith; [4]) was 6.7 and the ED50 (Strept. pneum. SVI; po) was 47 mg/kg. For the same molecule, the ED50 (Strept. pneum. SVI; sc) was 15 mg/kg, the “Ratio o/s of the ED50 values” value (Strept. pneum. SVI; [4]) was 3.1 and the ED50 (Strept. pyogenes C 203; po) was 21 mg/kg. The ED50 (Strept. pyogenes C 203; sc) was 4 mg/kg and the “Ratio o/s of the ED50 values” value (Strept. pyogenes C 203; [4]) was 5.3.
For CCn1cc(C(=O)O)c(=O)c2cc(F)c(N3CCNCC3)nc21 [EC, Enoxacin], the MIC50 (Bacteroides fragilis; [5]) was 16 µg/mL (≈ 49.9 µM), the MIC90 (Bacteroides fragilis; [6]) was 16 µg/mL (≈ 49.9 µM) and the MIC50 (Bacteroides app.; Bacteroides app., 50%) was 16 µg/mL (≈ 49.9 µM).
With CN1CC2CC1CN2c1cc2c(cc1F)c(=O)c(C(=O)O)cn2-c1ccc(F)cc1 (stereo not shown) [Example 5, 6-Fluoro-1-(4-fluorophenyl)-1,4-dihydro-7(5-methyl-2,5-diazabicyclo(2.2.1)hept-2-yl)-4-oxoquinoline-3-carboxylic acid] the MIC50 ([1]; Staphylococcus aureus, MSSA) was 0.25 µg/mL (≈ 0.608 µM), the MIC90 ([1]; Staphylococcus aureus, MSSA) was 0.5 µg/mL (≈ 1.22 µM) and the MIC50 ([2]; Staphylococcus aureus, MRSA) was 0.25 µg/mL (≈ 0.608 µM). For the same molecule, the MIC90 ([2]; Staphylococcus aureus, MRSA) was 1 µg/mL (≈ 2.43 µM), the MIC50 ([3]; Streptococcus) was 1 µg/mL (≈ 2.43 µM) and the MIC90 ([3]; Streptococcus) was 4 µg/mL (≈ 9.72 µM). The MIC50 (Streptococcus pneumoniae; read-out: MIC, 50% Inhibitious) was 1 µg/mL (≈ 2.43 µM), the MIC90 (Streptococcus pneumoniae; read-out: MIC, 90% Inhibitious) was 2 µg/mL (≈ 4.86 µM) and the MIC50 (Streptococcus faecalis) was 4 µg/mL (≈ 9.72 µM). The MIC90 (Streptococcus faecalis) was 8 µg/mL (≈ 19.4 µM), the MIC50 (Bacteroides fragilis; read-out: MIC, 50% Inhibitious) was 4 µg/mL (≈ 9.72 µM) and the MIC90 (Bacteroides fragilis; read-out: MIC, 90% Inhibitious) was 4 µg/mL (≈ 9.72 µM). It also gave an MIC50 (Bacteroides app.; Bacteroides) of 8 µg/mL (≈ 19.4 µM) and an MIC90 (Bacteroides app.; Bacteroides) of 8 µg/mL (≈ 19.4 µM).
With CCn1cc(C(=O)O)c(=O)c2cc(F)c(N3CCN(C)CC3)cc21 [PF, Pefloxacin, reference compound] the MIC50 ([1]; Staphylococcus aureus MSSA, 50%) was 0.5 µg/mL (≈ 1.5 µM), the MIC90 ([1]; Staphylococcus aureus MSSA, 90%) was 1 µg/mL (≈ 3 µM) and the MIC50 ([2]; Staphylococcus aureus MRSA, 50%) was 0.5 µg/mL (≈ 1.5 µM). For the same molecule, the MIC90 ([2]; Staphylococcus aureus MRSA, 90%) was 1 µg/mL (≈ 3 µM), the MIC50 ([3]; Streptococcus beta-hemolytic, 50%) was 4 µg/mL (≈ 12 µM) and the MIC90 ([3]; Streptococcus beta-hemolytic, 90%) was 8 µg/mL (≈ 24 µM). The MIC50 (Streptococcus pneumoniae; [5]) was 4 µg/mL (≈ 12 µM), the MIC90 (Streptococcus pneumoniae; [6]) was 8 µg/mL (≈ 24 µM) and the MIC50 (Streptococcus faecalis; Streptococcus faecalis, 50%) was 4 µg/mL (≈ 12 µM). The MIC90 (Streptococcus faecalis; Streptococcus faecalis, 90%) was 8 µg/mL (≈ 24 µM), the ED50 (Escherichia coli 314; po) was 0.84 mg/kg and the ED50 (Escherichia coli 314; sc) was 0.48 mg/kg. The ED50 (Klebsiella pneum. AD; po) was 0.8 mg/kg, the ED50 (Klebsiella pneum. AD; sc) was 0.71 mg/kg and the ED50 (Staph. aureus Smith; po) was 3.8 mg/kg. For the same molecule, the ED50 (Staph. aureus Smith; sc) was 1.4 mg/kg, the MIC (CITRO DIV) was 0.03 µg/mL (≈ 0.09 µM) and the MIC (ESCH COLI; 1 ESCH COLI MOR 84 20, 35 Celsius) was 0.06 µg/mL (≈ 0.18 µM). It also gave an MIC (ESCH COLI; 2 ESCH COLI VGH 84 19, 35 Celsius) of 0.06 µg/mL (≈ 0.18 µM), an MIC (ESCH COLI; 3 ESCH COLI CMC 84 50, 35 Celsius) of 0.06 µg/mL (≈ 0.18 µM) and an MIC (ESCH COLI; 28 ESCH COLI ATCC 25922, 35 Celsius) of 0.03 µg/mL (≈ 0.09 µM). For the same molecule, the MIC (PROV STUA) was 4 µg/mL (≈ 12 µM), the MIC (PSEU AERUG; 19 PSEU AERUG K 84 16, 35 Celsius) was 4 µg/mL (≈ 12 µM) and the MIC (PSEU AERUG; 20 PSEU AERUG VGH 84 3, 35 Celsius) was 8 µg/mL (≈ 24 µM). For the same molecule, the MIC (PSEU AERUG; 21 PSEU AERUG CMC 83 20, 35 Celsius) was 2 µg/mL (≈ 6 µM), the MIC (STREP FAEC; 25 STREP FAEC UCI 85 30, 35 Celsius) was 4 µg/mL (≈ 12 µM) and the MIC (STREP FAEC; 26 STREP FAEC VGH 84 69, 35 Celsius) was 2 µg/mL (≈ 6 µM). The MIC (STREP FAEC; 27 STREP FAEC CMC 83 120, 35 Celsius) was 4 µg/mL (≈ 12 µM), the MIC (MORG MORG; 14 MORG MORG CMC 84 38, 35 Celsius) was 0.03 µg/mL (≈ 0.09 µM) and the MIC (MORG MORG; 15 MORG MORG MOR 84 45, 35 Celsius) was 0.03 µg/mL (≈ 0.09 µM). The MIC (SERRAT MARC; 10 SERRAT MARC MOR 84 41, 35 Celsius) was 0.06 µg/mL (≈ 0.18 µM), the MIC (SERRAT MARC; 11 SERRAT MARC CMC 83 74, 35 Celsius) was 4 µg/mL (≈ 12 µM) and the MIC (STAPH AUR) was 2 µg/mL (≈ 6 µM).
